Data published in patent US8592417B2, “2-substituted-6-heterocyclic pyrimidone derivatives as tau protein kinase 1 inhibitors” (Mitsubishi Tanabe Pharma Corporation, priority 2006, dated 2013).
pIC50: −log10 of the molar value.

Molecular target: T1, bovine cerebral TPK1 (Bos taurus, UniProt A0A3Q1MT31)
T1 construct: bovine cerebral TPK1; from tissue; host or cells: bovine brain (cerebrum)
Assay: Inhibitory activity against P-GS1 phosphorylation by bovine cerebral TPK1
Format: biochemical
Details: 41.7 μM [γ-32P] ATP, 25° C. for 2 hours
Protocol: Inhibitory Activity of the Medicament of the Present Invention Against P-GS1 Phosphorylation by Bovine Cerebral TPK1
A mixture containing 100 mM MES-sodium hydroxide (pH 6.5), 1 mM magnesium acetate, 0.5 mM EGTA, 5 mM β-mercaptoethanol, 0.02% Tween 20, 10% glycerol, 12 μg/ml P-GS1, 41.7 μM [γ^−32P] ATP (68 kBq/ml), bovine cerebral TPK1 and a compound shown in Table (a final mixture contained 1.7% DMSO deriving from a solution of a test compound prepared in the presence of 10% DMSO) was used as a reaction system. The phosphorylation was started by adding ATP, and the reaction was conducted at 25° C. for 2 hours, and then stopped by adding 21% perchloric acid on ice cooling. The reaction mixture was centrifuged at 12,000 rpm for 5 minutes and adsorbed on P81 paper (Whatmann), and then the paper was washed four times with 75 mM phosphoric acid, three times with water and once with acetone. The paper was dried, and the residual radioactivity was measured using a liquid scintillation counter.

T1 sequence (A0A3Q1MT31 1-419): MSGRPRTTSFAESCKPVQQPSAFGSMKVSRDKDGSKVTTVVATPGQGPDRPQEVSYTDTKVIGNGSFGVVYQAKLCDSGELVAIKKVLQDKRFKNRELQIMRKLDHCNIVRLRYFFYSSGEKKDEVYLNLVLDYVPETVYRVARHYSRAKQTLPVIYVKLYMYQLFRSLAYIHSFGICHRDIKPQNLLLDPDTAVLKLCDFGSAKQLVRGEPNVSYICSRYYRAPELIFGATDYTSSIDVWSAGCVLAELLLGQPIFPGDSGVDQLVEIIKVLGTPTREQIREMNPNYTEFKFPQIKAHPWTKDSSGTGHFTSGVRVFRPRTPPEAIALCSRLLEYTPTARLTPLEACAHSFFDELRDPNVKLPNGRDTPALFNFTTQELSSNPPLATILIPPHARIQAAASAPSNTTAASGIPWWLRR

Row | pIC50 | Structure (SMILES)
1 | 7.06 | O=c1cc(-c2ccncn2)nc(N2CCO[C@@H](c3ccc(F)cc3)C2)[nH]1 [Compound 2, 2-[(2S)-2-(4-Fluorophenyl)morpholin-4-yl]-1H-[4,4′]bipyrimidinyl-6-one]
2 | 7.22 | O=c1cc(-c2ccncc2F)nc(N2CCO[C@@H](c3ccc(F)cc3)C2)[nH]1 [Compound 3, 2-[(2S)-2-(4-Fluoro-phenyl)-morpholin-4-yl]-6-(3-fluoro-pyridin-4-yl)-3H-pyrimidin-4-one]
